Where two headings read alike, the source gives them in different places.
Legend:
[1] = Maximum solubility in 2% BSA Krebs-Henseleit buffer (pH 7.4); assay type: physicochemical; details: 25 1° C.
From the text: The intrinsic solubility of diflunisal esters is extremely low (TABLE 2). The more lipophilic the analogue, the higher the solubility of solute under these conditions.

[2] = In vitro non-enzymatic hydrolysis in Krebs-Henseleit buffer; assay type: physicochemical; details: for Hydrolysis rate constant (k): pH 7.4, 25° C., n=5; for half-life: pH 7.4, read-out: Half life (t1/2) (converted)
In short: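 Derivatives dissolved in Krebs-Henseleit buffer, pH 7.4, 25±1° C, with no protein or 2% w/v BSA; solutions sonicated and centrifuged, supernatant sampled over time. First-order hydrolysis rate constant k derived from ester concentration vs time, and half-life calculated from k.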

[3] = biological target: T1, BSA (bovine serum albumin) (Bos taurus, UniProt P02769); assay: Protein binding by ultrafiltration in 2% BSA Krebs buffer; assay type: in vitro ADME; details: 2% BSA Krebs-Henseleit buffer pH 7.4, 37° C.; slope of Scatchard plot
T1 construct: BSA (bovine serum albumin, fraction V, Sigma); purchased Sigma; host or cells: bovine serum (fraction V)
Protocol: These experiments were carried out in Krebs-Henseleit buffer containing 2% w/v BSA (pH 7.4) and incubated at 37° C. for 30 minutes.
A known concentration of the ethanolic (≲1%) aspirin analogue or diflunisal ester stock solution was added to the 2% BSA Krebs solution to make final concentrations of 125 μM, 250 μM and 500 μM.
The unbound fraction (fu) of parent drug and its hydrolysis product were investigated using ultra-filtration: A 1.0 mL aliquot sample (in triplicate) was placed in a ultrafiltration tube (MPS-1, micro-partition system, Amicon) and centrifuged at 3000 g for 10 minutes. The ultra-filtrate was then assayed for parent drug and its hydrolysis product by HPLC.
To eliminate possible errors caused by hydrolysis, identical samples were placed in normal tubes and subjected to the same procedure. This control group (also in triplicate) was used to adjust for the percentage of hydrolysis in the ultra-filtrate under the experimental conditions.
The fu was determined as the ratio of the free concentration to total concentration of solutes. The binding constant (K) was determined from the slope of a Scatchard plot using following equation:
[Db]/[D]=−K[Db]vK[Pt] (3)
where [Db] is the concentration of bound drug, [D] is the concentration of drug, [Pt] is the concentration of total protein, and v is the number of independent binding sites available. This equation is plotted as the ratio [Db]/[D] versus [Db] and in this way the binding constant (K) is determined from the slope while vK[Pt] is determined from the intercept (Martin, 1983).

[4] = tested on: in-situ perfused rat liver; assay: In-situ rat liver perfusions, hepatic availability (Example 2); assay type: in vitro ADME; details: 30 mL/min, bolus
Protocol: The hepatic availability (Fhepatic) for the O-acyl esters of the salicylic acid and diflunisal was determined using a once through in-situ perfused rat liver preparation (Mellick et al, Unpublished Results).
Protein-free Krebs-Henseleit buffer was perfused at 30 mL/min for aspiring analogues and 2% BSA in Krebs-Henseleit buffer for diflunisal esters (since the solubilities of these latter compounds in protein-free media were very low (Hung et al, supra), 2% BSA were used to increase their solubilities). Briefly, 50 μL aliquots of a saturated solution of the particular O-acyl salicylic acid or diflunisal in Krebs-Henseleit buffer (or with 2% BSA) was injected into the liver with perfusate outflow samples collected via a fraction collector over three minutes. Aliquots (100 μL) from the outflow samples were assayed by HPLC to determine the residual concentration of presented ester and the quantity of phenolic metabolite (salicylic acid or diflunisal) issuing from the perfused liver. The HPLC assay was a modification of the method used by Mellick & Roberts 1996 (Mellick et al, 1996, unpublished results).
The hepatic availability (F) was determined from the outflow concentration versus time profiles for the esters using equation 1, with the assistance of the Moments Calculator 2.2 program for Macintosh computer developed by Robert Purves.
where Q is the perfusate flow rate and D is the dose of aspirin analogues or diflunisal esters administered. The area under the concentration-time curve (AUC) was estimated by the trapezoidal rule integration with appropriate modification for tail (Mellick et al, supra).

[5] = tested on: ischaemic/reperfusion rat livers; assay: Ischaemic/reperfusion injury in rat livers (LDH release, bile production); set-up: species or system Female Sprague-Dawley rats; details: for EC50: Rattus norvegicus
Protocol: Female Sprague-Dawley rats (220-250 g) were anaesthetised by interperitoneal injection of pentobarbital sodium (60 mg/kg, Boehringer Ingelhein). […] The bile duct was cannulated with a polyethylene tubing (PE-10, I.D. 0.28 mm; Clay Adams, New Jersey) and bile was collected into pre-weighed microcentrifuge tubes at 70 min intervals (in the middle of experiment and the end of experiment). The portal vein was then cannulated using a 16 G intravenous catheter and the liver was perfused via this cannula with 2% BSA Krebs-Henseleit bicarbonate buffer (pH 7.4) and oxygenated using a membrane oxygenator comprising of silastic tubing and ventilated with carbogen (95% O2/5% CO2). The perfusion system used was recirculating and employed a peristaltic pump (Cole-Parmer, Illinois).
Following a 10 min pre-ischaemia perfusion, the perfusion flow was stopped for 30 min at 37° C. with the liver being kept moist. At the end of this ischaemic phase, a known concentration of the aspirin analogue or diflunisal ester's solution (in 2% BSA Krebs-Henseleit buffer) was added into the perfusate prior to the perfusion being resumed for another 100 min. Outflow fractions were collected up to 140 min. A biochemistry autoanalyzer (Hitachi, model 747; Tokyo, Japan) was employed to determine the level of enzyme (LDH) release.
The degree of ischaemic/reperfusion injury was measured by calculating the area under the LDH release ([…]) versus time curve (AUC). […] The efficacy of each compound is expressed in terms of ED50 which represents the molar dose for 50% reduction of LDH release compared to the control. The comparison of bile production between the first stage of experiment (the first 70 min) and the second stage of experiment (the last 70 min) is also used as index of liver function during an experiment.

[6] = biological target: T1, BSA (bovine serum albumin); details: 2% BSA; Hung et al., 1996; cited from earlier work
[7] = Krebs-Henseleit buffer 0% BSA, U = Undetectable
[8] = 2% BSA in Krebs-Henseleit buffer as perfusate
[9] = bovine, Krebs-Henseleit buffer with 2% w/v BSA
[10] = protein-free Krebs-Henseleit buffer, Krebs-Henseleit buffer 0% BSA, first half life, t1/2=0.693/k, U = Undetectable
[11] = protein-free Krebs-Henseleit buffer as perfusate
[12] = C is the ED50 molar dose, read-out: log 1/C (converted)
[13] = molar dose for 50% reduction of LDH release compared to control, 30 min ischaemia, 100 min reperfusion, read-out: ED50 (the source's name)

T1 sequence (P02769 25-607): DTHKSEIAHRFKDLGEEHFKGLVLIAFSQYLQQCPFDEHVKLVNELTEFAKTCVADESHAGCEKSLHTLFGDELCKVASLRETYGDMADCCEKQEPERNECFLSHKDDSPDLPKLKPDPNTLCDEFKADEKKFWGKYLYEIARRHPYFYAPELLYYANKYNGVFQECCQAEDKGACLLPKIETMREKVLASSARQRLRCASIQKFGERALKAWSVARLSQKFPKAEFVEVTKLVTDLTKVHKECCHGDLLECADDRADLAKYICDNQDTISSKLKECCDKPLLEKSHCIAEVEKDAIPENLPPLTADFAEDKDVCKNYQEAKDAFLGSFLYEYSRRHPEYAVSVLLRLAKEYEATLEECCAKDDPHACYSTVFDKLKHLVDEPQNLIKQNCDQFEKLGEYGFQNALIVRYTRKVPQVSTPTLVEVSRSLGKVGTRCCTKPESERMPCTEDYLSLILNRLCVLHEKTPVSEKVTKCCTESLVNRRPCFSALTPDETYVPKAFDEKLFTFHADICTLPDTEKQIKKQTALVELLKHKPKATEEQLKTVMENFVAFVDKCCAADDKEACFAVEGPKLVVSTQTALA

CC(=O)Oc1ccc(-c2ccc(F)cc2F)cc1C(=O)O [Compound C2D, acetyldiflunisal]
Maximum solubility [1]: 7.57 mM | Maximum solubility ([1]; mean standard deviation (n=3)): 2200 ± 70 µg/mL | Hydrolysis rate constant (k) [2, 7]: 0.0378 ± 0.0105 hour^1 | Hydrolysis rate constant (k) ([2]; Krebs-Henseleit buffer 2% BSA): 0.0238 ± 0.0095 hour^1 | Protein binding constant (K) [3]: 2077 L/mol | Hepatic availability (F) [4, 8]: 0.21 | log 1/C ([5]; C is the ED50 molar dose): 4.61 | fub (unbound fraction) [6]: 0.27 ± 0.02

CCCC(=O)Oc1ccc(-c2ccc(F)cc2F)cc1C(=O)O [Compound C4D, n-butanoyldiflunisal]
Maximum solubility [1]: 12.38 mM | Maximum solubility ([1]; mean standard deviation (n=3)): 3960 ± 80 µg/mL | Hydrolysis rate constant (k) ([2]; Krebs-Henseleit buffer 2% BSA): 0.0138 ± 0.0058 hour^1 | Protein binding constant (K) [3]: 2365 L/mol | Hepatic availability (F) [4, 8]: 0.34 | log 1/C ([5]; C is the ED50 molar dose): 4.67 | fub (unbound fraction) [6]: 0.14 ± 0.01

CCCC(=O)Oc1ccccc1C(=O)O [Compound C4SA, n-butanoylsalicylic acid]
Hydrolysis rate constant (k) [2, 7]: 0.0049 ± 0.0037 hour^1 | Hydrolysis rate constant (k) ([2]; Krebs-Henseleit buffer 2% BSA): 0.0031 ± 0.0015 hour^1 | half-life [2, 9]: 224 h | half-life [2, 10]: 141 h | Hepatic availability (F) [4, 11]: 0.40 | EC50 [5, 12]: 49 µM | EC50 [5, 13]: 48.8 µM

CCCCC(=O)Oc1ccc(-c2ccc(F)cc2F)cc1C(=O)O [Compound C5D, n-pentanoyldiflunisal]
Maximum solubility [1]: 20.90 mM | Maximum solubility ([1]; mean standard deviation (n=3)): 6980 ± 150 µg/mL | Hydrolysis rate constant (k) ([2]; Krebs-Henseleit buffer 2% BSA): 0.0113 ± 0.0037 hour^1 | Protein binding constant (K) [3]: 2707 L/mol | Hepatic availability (F) [4, 8]: 0.38 | log 1/C ([5]; C is the ED50 molar dose): 4.77 | fub (unbound fraction) [6]: 0.12 ± 0.01

CCCCC(=O)Oc1ccccc1C(=O)O [Compound C5SA, n-pentanoylsalicylic acid]
Hydrolysis rate constant (k) [2, 7]: 0.0061 ± 0.0027 hour^1 | Hydrolysis rate constant (k) ([2]; Krebs-Henseleit buffer 2% BSA): 0.0028 ± 0.0013 hour^1 | half-life [2, 9]: 248 h | half-life [2, 10]: 114 h | Protein binding constant (K) [3]: 1525 L/mol | Hepatic availability (F) [4, 11]: 0.26 | EC50 [5, 12]: 34.7 µM | EC50 [5, 13]: 34.6 µM

CCCCCC(=O)Oc1ccc(-c2ccc(F)cc2F)cc1C(=O)O [Compound C6D, n-hexanoyldiflunisal]
Maximum solubility [1]: 44.77 mM | Maximum solubility ([1]; mean standard deviation (n=3)): 15580 ± 300 µg/mL | Hydrolysis rate constant (k) ([2]; Krebs-Henseleit buffer 2% BSA): 0.0056 ± 0.0042 hour^1 | Protein binding constant (K) [3]: 2995 L/mol | Hepatic availability (F) [4, 8]: 0.38 | log 1/C ([5]; C is the ED50 molar dose): 4.68 | fub (unbound fraction) [6]: 0.08 ± 0.00

CCCCCC(=O)Oc1ccccc1C(=O)O [Compound C6SA, n-hexanoylsalicylic acid]
Hydrolysis rate constant (k) [2, 7]: 0.0059 ± 0.0023 hour^1 | Hydrolysis rate constant (k) ([2]; Krebs-Henseleit buffer 2% BSA): 0.0021 ± 0.0017 hour^1 | half-life [2, 9]: 330 h | half-life [2, 10]: 117 h | Protein binding constant (K) [3]: 2071 L/mol | Hepatic availability (F) [4, 11]: 0.02 | EC50 [5, 12]: 28.8 µM | EC50 [5, 13]: 29.1 µM

O=C(O)c1cc(-c2ccc(F)cc2F)ccc1O [DF, 2′,4′-difluoro-4-hydroxy-3-biphenylcarboxylic acid, reference compound]
EC50 [5, 12]: 25.1 µM | EC50 [5, 13]: 25.2 µM

O-acetylsalicylic acid [Compound C2SA, reference compound]
Protein binding constant (K) [3]: 192 L/mol | Hepatic availability (F) [4, 11]: 0.85

— patent publication US6593365B1, “Diflunisal esters and related compounds” (The University of Queensland, priority 1997, dated 2003)
